Data as given in patent US20240077481A1, “IMPROVED TREATMENT METHODS USING DMDS FOR THE TREATMENT OF AUTOIMMUNE DISEASES, AND BIOMARKER FOR PREDICTING AND/OR OPTIMISING SAID TREATMENT METHODS” (ARES TRADING S.A., priority 2021, published 2024).

How the values were obtained:
plasma cells signatures = experiment: Immune deconvolution signatures, CLARITY phase 3, 96 weeks; type: in vivo, human; details: 96 weeks after first cladribine treatment
Text: Plasma cell signatures have weak positive, but significant, correlation with: MACT2 (Mean Active T2 Lesions), CACT2 (Cumulative Active T2 lesions), MRCULES (Mean CU Lesions), MNT1GEL (Mean New T1 Gd+ Lesions). The results are illustrated in FIG. 9.

plasmablast/cells = experiment: Sustained decrease of plasmablast/cells under Cladribine treatment; type: in vivo, human; details: month 3-12
Text: According to the instant invention, it is preferably shown that treatment of said autoimmune diseases with DMDs, preferably the treatment of MS with said DMDs and especially treatment of MS with Cladribine, in an individual induces a sustained decrease of pathological memory B cells and plasmablast/cells (>−70% and >−50% from baseline respectively) from month 1-12 and month 3-12 respectively. Repopulation of these cells resulting in a increase of numbers of memory B cells and Plasma cells to <−40% and −20% respectively will illustrate a loss of efficacy serving as a retreatment marker.

Memory B cells = experiment: MAGNIFY-MS peripheral blood immunophenotyping (flow cytometry); type: in vivo, human; details: month 1-12
[1] = system: plasma cell numbers in the blood; experiment: Plasma cell response in MS patients vaccinated with Shingrix before cladribine treatment; type: in vivo, human; details: MS patients vaccinated twice with Shingrix, second dose 1 week before start of cladribine
Text: According to the instant invention, it is preferably shown that treatment of treatment of MS with Cladribine, in an individual, reduces short lived plasmablasts and CD38^+ plasma cells and the direct effect on these plasma cell subpopulations is further supported by blood data from MS patients vaccinated twice with the Shingrix vaccine before the start of treatment with the DMD Cladribine. After the second Shingrix dose given 1 week before said start of cladribine treatment, the patient raised an acute plasma cell response, and increased plasma cell numbers in the blood to the MS patient were reduced by cladribine treatment (cite vaccination patent). These findings indicate that Cladribine is able to directly affect and reduce plasmablasts and CD38+ plasma cells which are associated with disease pathology by means of autoantibody production and direct cellular toxicity, especially when occurring within the cerebrospinal fluid. What we found in MS is also important for other diseases. There are a variety of AI & Neuroinflammatory diseases where potentially plasma cells/plasmablasts are involved in the disease activity and disease course which we deem to benefit from a treatment directly acting on plasma cells, preferably cladribine treatment. […]

[2] = CLARITY extension, five patient groups, 3.5 mg/kg or placebo after CLARITY; cited from earlier work
CD24hiCD38hi TrB cells = details: those with NMOSDs; cited from earlier work
CD27+ memory B cells = details: those with NMOSDs; cited from earlier work
CD19^+ cell = details: Montalban et al., 2016; cited from earlier work
B cell = details: followed by a period of repopulation (Wiendl et al., 2020); cited from earlier work
CD8^+ T cell = details: followed by a period of repopulation (Wiendl et al., 2020); cited from earlier work
CD4^+ T cell = details: followed by a period of repopulation (Wiendl et al., 2020); cited from earlier work

Molecule: Nc1nc(Cl)nc2c1ncn2[C@H]1C[C@H](O)[C@@H](CO)O1 [Cladribine]
- Ratio in plasma cells signatures vs untreated control (plasma cells signatures): decreased ratio
- Sustained decrease of plasmablast/cells from baseline (plasmablast/cells): > −50%
- Sustained decrease of pathological memory B cells from baseline (Memory B cells): > −70%
- Increased plasma cell numbers in the blood after second Shingrix dose [1]: reduced
- Relapse rates and disability between all groups [2]: not significantly different

Molecule: Rituximab: anti-CD20 therapy targeting B cells
- number of CD24hiCD38hi TrB cells (CD24hiCD38hi TrB cells): increased
- number of CD27+ memory B cells (CD27+ memory B cells): lowered

Molecule: ocrelizumab: anti-CD20 therapy targeting B cells
- Time of reductions in CD19^+ cell counts after treatment (as early as) (CD19^+ cell): 2 weeks

Molecule: Alemtuzumab: other disease-modifying therapy compared in the discussion
- B cell counts (B cell): decrease
- CD8^+ T cell counts (CD8^+ T cell): decrease
- CD4^+ T cell counts (CD4^+ T cell): decrease
